# From US10487093B2, “Heterocyclic compounds, in particular 2-oxo-4,4,5,5,6,6,7,7-octahydrobenzoxazole derivatives, and their use as antibacterial compounds” (priority 2016, dated 2019)
# Read-outs that look alike come from different tables or passages of the source.
# Legend:
# E. coli MG1655 S83L = format: cell-based, Escherichia coli
# [1] = system: Staphylococcus aureus ATCC 29213; assay: MIC, broth microdilution (CLSI) versus planktonic bacteria; format: cell-based; settings: Staphylococcus aureus ATCC 29213, 16-20 h, mode of three independent experiments; for MIC: ATCC29213, read-out: MIC, Sa ATCC 29213
# [2] = system: Acinetobacter baumannii NCTC 13420; assay: as above; format: cell-based; settings: Acinetobacter baumannii NCTC 13420, 16-20 h, mode of three independent experiments; for MIC: NCTC13420, read-out: MIC, Ab NCTC 13420
# E. coli MG1655 = assay: as above; format: cell-based, Escherichia coli; settings: for MIC, Ec MG1655 WT: Escherichia coli MG1655 WT, 16-20 h, mode of three independent experiments; for MIC: Escherichia coli, MG1655, read-out: MIC, Ec MG1655 WT
# [3] = system: human hepatic cell line (HepG2 ATCC HB-8065); assay: Human cell viability assay (CellTiter-Glo); settings: for IC50 (μg/mL) HepG2: HepG2 cell viability, 24 h, CellTiter-Glo; for IC50: Homo sapiens, HepG2, 24 h, read-out: IC50 (μg/mL) HepG2
# E. coli MG1655 D87G = format: cell-based, Escherichia coli
# [4] = system: Enterobacter cloacae NCTC 13406; assay: MIC, broth microdilution (CLSI) versus planktonic bacteria; format: cell-based; settings: Enterobacter cloacae NCTC 13406, 16-20 h, mode of three independent experiments; for MIC: NCTC13406, read-out: MIC, Ecl NCTC 13406
# [5] = system: Escherichia coli ATCC 25922; assay: as above; format: cell-based; settings: Escherichia coli ATCC 25922, 16-20 h, mode of three independent experiments; for MIC: ATCC25922, read-out: MIC, Ec ATCC 25922
# [6] = system: Streptococcus pneumoniae ATCC 49619; assay: as above; format: cell-based; settings: Streptococcus pneumoniae ATCC 49619, 16-20 h, mode of three independent experiments; for MIC: ATCC49619, read-out: MIC, Sp ATCC 49619
# [7] = system: Pseudomonas aeruginosa ATCC 27853; assay: as above; format: cell-based; settings: Pseudomonas aeruginosa ATCC 27853, 16-20 h, mode of three independent experiments; for MIC: ATCC27853, read-out: MIC, Pa ATCC 27853
# E. coli NCTC 13476 = assay: as above; format: cell-based; settings: Escherichia coli NCTC 13476, 16-20 h, mode of three independent experiments; for MIC: NCTC13476, read-out: MIC, Ec NCTC 13476
# E. coli ATCC BAA-2452 = assay: as above; format: cell-based; settings: Escherichia coli ATCC BAA-2452, 16-20 h, mode of three independent experiments; for MIC: read-out: MIC, Ec ATCC BAA 2452
# [8] = system: Acinetobacter baumannii ATCC 19606; assay: as above; format: cell-based; settings: Acinetobacter baumannii ATCC 19606, 16-20 h, mode of three independent experiments; for MIC: ATCC19606, read-out: MIC, Ab ATCC 19606
# [9] = system: Haemophilus influenzae ATCC 49247; assay: as above; format: cell-based; settings: Haemophilus influenzae ATCC 49247, 16-20 h, mode of three independent experiments; for MIC: ATCC49247, read-out: MIC, Hi ATCC 49247
# [10] = compared to the isogenic parent strain E. coli MG1655, S83L mutation on DNA gyrase subunit GyrA
# [11] = compared to the isogenic parent strain E. coli MG1655, D87G mutation on DNA gyrase subunit GyrA
compound,measurement,setting,value
"1-[(2S)-3-{[(3aR,6R,7aR)-2-oxo-3-{3-oxo-2H,3H,4H-pyrido[3,2-b][1,4]oxazin-6-yl}-octahydro-1,3-benzoxazol-6-yl]amino}-2-hydroxypropyl]-7-fluoro-1,2-dihydroquinoxalin-2-one & 1-[(2R)-3-{[(3aR,6R,7aR)-2-oxo-3-{3-oxo-2H,3H,4H-pyrido[3,2-b][1,4]oxazin-6-yl}-octahydro-1,3-benzoxazol-6-yl]amino}-2-hydroxypropyl]-7-fluoro-1,2-dihydroquinoxalin-2-one [Compound 94]","Fold increase in MIC, E. coli MG1655 S83L",E. coli MG1655 S83L,1 fold
same,"MIC, Sa ATCC 29213",[1],A (an MIC (in μg/mL) of less or equal to 1 is assigned the letter A)
same,"MIC, Ab NCTC 13420",[2],B (a MIC of from 1 to 10 is assigned the letter B)
same,"MIC, Ec MG1655 WT",E. coli MG1655,A (an MIC (in μg/mL) of less or equal to 1 is assigned the letter A)
same,IC50 (μg/mL) HepG2,[3],A (an IC50 of over 100 is assigned the letter A)
same,"Fold increase in MIC, E. coli MG1655 D87G",E. coli MG1655 D87G,2 fold
same,"MIC, Ecl NCTC 13406",[4],B (a MIC of from 1 to 10 is assigned the letter B)
same,"MIC, Ec ATCC 25922",[5],A (an MIC (in μg/mL) of less or equal to 1 is assigned the letter A)
same,"MIC, Sp ATCC 49619",[6],A (an MIC (in μg/mL) of less or equal to 1 is assigned the letter A)
same,"MIC, Pa ATCC 27853",[7],B (a MIC of from 1 to 10 is assigned the letter B)
same,"MIC, Ec NCTC 13476",E. coli NCTC 13476,A (an MIC (in μg/mL) of less or equal to 1 is assigned the letter A)
same,"MIC, Ec ATCC BAA 2452",E. coli ATCC BAA-2452,A (an MIC (in μg/mL) of less or equal to 1 is assigned the letter A)
same,"MIC, Ab ATCC 19606",[8],B (a MIC of from 1 to 10 is assigned the letter B)
same,"MIC, Hi ATCC 49247",[9],A (an MIC (in μg/mL) of less or equal to 1 is assigned the letter A)
"1-[(2S)-3-{[(3aS,6S,7aS)-2-oxo-3-{3-oxo-2H,3H,4H-pyrido[3,2-b][1,4]oxazin-6-yl}-octahydro-1,3-benzoxazol-6-yl]amino}-2-hydroxypropyl]-7-fluoro-1,2-dihydroquinoxalin-2-one & 1-[(2R)-3-{[(3aS,6S,7aS)-2-oxo-3-{3-oxo-2H,3H,4H-pyrido[3,2-b][1,4]oxazin-6-yl}-octahydro-1,3-benzoxazol-6-yl]amino}-2-hydroxypropyl]-7-fluoro-1,2-dihydroquinoxalin-2-one [Compound 95]","Fold increase in MIC, E. coli MG1655 S83L",E. coli MG1655 S83L,0.5 fold
same,"MIC, Sa ATCC 29213",[1],A (an MIC (in μg/mL) of less or equal to 1 is assigned the letter A)
same,"MIC, Ab NCTC 13420",[2],A (an MIC (in μg/mL) of less or equal to 1 is assigned the letter A)
same,"MIC, Ec MG1655 WT",E. coli MG1655,A (an MIC (in μg/mL) of less or equal to 1 is assigned the letter A)
same,IC50 (μg/mL) HepG2,[3],A (an IC50 of over 100 is assigned the letter A)
same,"Fold increase in MIC, E. coli MG1655 D87G",E. coli MG1655 D87G,1 fold
same,"MIC, Ecl NCTC 13406",[4],B (a MIC of from 1 to 10 is assigned the letter B)
same,"MIC, Ec ATCC 25922",[5],A (an MIC (in μg/mL) of less or equal to 1 is assigned the letter A)
same,"MIC, Sp ATCC 49619",[6],A (an MIC (in μg/mL) of less or equal to 1 is assigned the letter A)
same,"MIC, Pa ATCC 27853",[7],B (a MIC of from 1 to 10 is assigned the letter B)
same,"MIC, Ec NCTC 13476",E. coli NCTC 13476,A (an MIC (in μg/mL) of less or equal to 1 is assigned the letter A)
same,"MIC, Ec ATCC BAA 2452",E. coli ATCC BAA-2452,A (an MIC (in μg/mL) of less or equal to 1 is assigned the letter A)
same,"MIC, Ab ATCC 19606",[8],B (a MIC of from 1 to 10 is assigned the letter B)
same,"MIC, Hi ATCC 49247",[9],A (an MIC (in μg/mL) of less or equal to 1 is assigned the letter A)
"COc1ccc2ncc(=O)n(CCN[C@H]3CCC4C(C3)OC(=O)N4c3ccc4c(n3)NC(=O)CO4)c2n1 (stereo in doubt) [Compound 45, (3aS,6S,7aS)-6-[(2-{6-methoxy-3-oxo-3H,4H-pyrido[2,3-b]pyrazin-4-yl}ethyl)amino]-3-{3-oxo-2H,3H,4H-pyrido[3,2-b][1,4]oxazin-6-yl}-octahydro-1,3-benzoxazol-2-one]","Fold increase in MIC, E. coli MG1655 S83L",E. coli MG1655 S83L; [10],2 fold
same,MIC,[1],< 1 µg/mL
same,MIC,[2],< 1 µg/mL
same,MIC,E. coli MG1655,< 1 µg/mL
same,IC50,[3],10 to 100 µg/mL
same,"Fold increase in MIC, E. coli MG1655 D87G",E. coli MG1655 D87G; [11],1 fold
same,MIC,[4],< 1 µg/mL
same,MIC,[5],< 1 µg/mL
same,MIC,[6],< 1 µg/mL
same,MIC,[7],1 to 10 µg/mL
same,MIC,E. coli NCTC 13476,< 1 µg/mL
same,MIC,E. coli ATCC BAA-2452,< 1 µg/mL
same,MIC,[8],< 1 µg/mL
same,MIC,[9],< 1 µg/mL
"COc1ccc2ccc(=O)n(CCN(CCO)[C@H]3CC[C@H]4[C@@H](C3)OC(=O)N4c3ccc4c(n3)NC(=O)CO4)c2n1 [Compound 7, 1-(2-{[(3aS,6S,7aR)-2-oxo-3-{3-oxo-2H,3H,4H-pyrido[3,2-b][1,4]oxazin-6-yl}-octahydro-1,3-benzoxazol-6-yl](2-hydroxyethyl)amino}ethyl)-7-methoxy-1,2-dihydro-1,8-naphthyridin-2-one]","Fold increase in MIC, E. coli MG1655 S83L",E. coli MG1655 S83L; [10],1 fold
same,MIC,[1],< 1 µg/mL
same,MIC,[2],< 1 µg/mL
same,MIC,E. coli MG1655,< 1 µg/mL
same,IC50,[3],> 100 µg/mL
same,"Fold increase in MIC, E. coli MG1655 D87G",E. coli MG1655 D87G; [11],1 fold
same,MIC,[4],1 to 10 µg/mL
same,MIC,[5],< 1 µg/mL
same,MIC,[6],< 1 µg/mL
same,MIC,[7],1 to 10 µg/mL
same,MIC,E. coli NCTC 13476,1 to 10 µg/mL
same,MIC,E. coli ATCC BAA-2452,1 to 10 µg/mL
same,MIC,[8],1 to 10 µg/mL
same,MIC,[9],1 to 10 µg/mL
"N#Cc1ccc2ccc(=O)n(CCN[C@H]3CC[C@H]4[C@@H](C3)OC(=O)N4c3ccc4c(n3)NC(=O)CO4)c2c1 [Compound 14, 1-(2-{[(3aS,6S,7aR)-2-oxo-3-{3-oxo-2H,3H,4H-pyrido[3,2-b][1,4]oxazin-6-yl}-octahydro-1,3-benzoxazol-6-yl]amino}ethyl)-2-oxo-1,2-dihydroquinoline-7-carbonitrile]","Fold increase in MIC, E. coli MG1655 S83L",E. coli MG1655 S83L; [10],2 fold
same,MIC,[1],< 1 µg/mL
same,MIC,[2],< 1 µg/mL
same,MIC,E. coli MG1655,< 1 µg/mL
same,IC50,[3],> 100 µg/mL
same,"Fold increase in MIC, E. coli MG1655 D87G",E. coli MG1655 D87G; [11],2 fold
same,MIC,[4],< 1 µg/mL
same,MIC,[5],< 1 µg/mL
same,MIC,[6],< 1 µg/mL
same,MIC,[7],< 1 µg/mL
same,MIC,E. coli NCTC 13476,< 1 µg/mL
same,MIC,E. coli ATCC BAA-2452,< 1 µg/mL
same,MIC,[8],< 1 µg/mL
same,MIC,[9],< 1 µg/mL
"N#Cc1ccc2ccc(=O)n(CCN[C@H]3CC[C@H]4[C@@H](C3)OC(=O)N4c3ccc4c(n3)NC(=O)CO4)c2n1 [Compound 15, 8-(2-{[(3aS,6S,7aR)-2-oxo-3-{3-oxo-2H,3H,4H-pyrido[3,2-b][1,4]oxazin-6-yl}-octahydro-1,3-benzoxazol-6-yl]amino}ethyl)-7-oxo-7,8-dihydro-1,8-naphthyridine-2-carbonitrile]","Fold increase in MIC, E. coli MG1655 S83L",E. coli MG1655 S83L; [10],1 fold
same,MIC,[1],< 1 µg/mL
same,MIC,[2],1 to 10 µg/mL
same,MIC,E. coli MG1655,1 to 10 µg/mL
same,IC50,[3],10 to 100 µg/mL
same,"Fold increase in MIC, E. coli MG1655 D87G",E. coli MG1655 D87G; [11],1 fold
same,MIC,[4],1 to 10 µg/mL
same,MIC,[5],< 1 µg/mL
same,MIC,[6],< 1 µg/mL
same,MIC,[7],1 to 10 µg/mL
same,MIC,E. coli NCTC 13476,1 to 10 µg/mL
same,MIC,E. coli ATCC BAA-2452,1 to 10 µg/mL
same,MIC,[8],1 to 10 µg/mL
same,MIC,[9],1 to 10 µg/mL
"COc1ccc2ncc(=O)n(CCN[C@H]3CC[C@H]4[C@@H](C3)OC(=O)N4c3ccc4c(n3)NC(=O)CO4)c2c1 [Compound 24, 1-(2-{[(3aS,6S,7aR)-2-oxo-3-{3-oxo-2H,3H,4H-pyrido[3,2-b][1,4]oxazin-6-yl}-octahydro-1,3-benzoxazol-6-yl]amino}ethyl)-7-methoxy-1,2-dihydroquinoxalin-2-one]","Fold increase in MIC, E. coli MG1655 S83L",E. coli MG1655 S83L; [10],2 fold
same,MIC,[1],< 1 µg/mL
same,MIC,[2],< 1 µg/mL
same,MIC,E. coli MG1655,< 1 µg/mL
same,IC50,[3],> 100 µg/mL
same,"Fold increase in MIC, E. coli MG1655 D87G",E. coli MG1655 D87G; [11],2 fold
same,MIC,[4],< 1 µg/mL
same,MIC,[5],< 1 µg/mL
same,MIC,[6],< 1 µg/mL
same,MIC,[7],< 1 µg/mL
same,MIC,E. coli NCTC 13476,< 1 µg/mL
same,MIC,E. coli ATCC BAA-2452,< 1 µg/mL
same,MIC,[8],< 1 µg/mL
same,MIC,[9],< 1 µg/mL
